# Tested on: Sprague-Dawley (SD) rats
# Assay: oral glucose tolerance test (OGTT) in SD rats, reduction rate in blood glucose AUC relative to vehicle
# Assay type: in vivo, rat
# Conditions: male SD rats
# Experimental: In this experiment, the compound represented by Formula 1 was prepared by the method described in Example 5 of Korean Patent Laid-Open Publication No. 10-2018-0069718 and dapagliflozin (HY-10450, MedChemExpress Co., Ltd.) was used. As a control group, a vehicle (0.5% carboxymethyl cellulose (CMC)) was used.
# After at least 1 week of acclimatization of 8 to 10 week-old male Sprague-Dawley (SD) rats, an oral glucose tolerance test (OGTT) was performed using healthy rats.
# After 16 hours of fasting, the rats were randomly divided into groups each having 5 rats similar in body weight and blood glucose level, followed by administration of the vehicle (0.5% carboxymethyl cellulose (CMC)), 0.3 mg/kg of the compound represented by Formula 1 alone, 0.1 mg/kg of dapagliflozin alone, or a combination of 0.3 mg/kg of the compound represented by Formula 1 and 0.1 mg/kg of dapagliflozin. One hour after administration of each of the drugs, glucose (2 g/kg) was intraperitoneally injected at a dose of 10 ml/kg. Blood glucose level was measured 60 minutes before glucose injection and 0, 15, 30, 60, and 120 minutes after glucose injection through puncture of the caudal vein using a blood glucose meter (Gluco DR. Almedicus. Co. Ltd.). Results were expressed by a reduction rate (%) in area under the blood glucose curve (AUC) relative to administration of the vehicle.
# Results of measuring AUC from 0 to 60 min and from 0 to 120 min after glucose injection according to the above method are shown in Table 1 and FIG. 1.
# An experiment was conducted in the same manner as in Example 1 except that 0.3 mg/kg of empagliflozin (HY-15409, MedChemExpress Co., Ltd.) was used instead of 0.1 mg/kg of dapagliflozin.
# [1] = Example 1, 0.3 mg/kg alone, 1 h before glucose 2 g/kg
# [2] = Example 2, Formula 1 0.3 mg/kg alone
# [3] = Example 1, 0.1 mg/kg alone, 1 h before glucose 2 g/kg
# [4] = Example 2, empagliflozin 0.3 mg/kg alone
structure (smiles),measurement,setting,value
"CC#C[C@@H](CC(=O)O)c1ccc(O[C@@H]2CCc3c(-c4ccc(O[C@@H]5CCOC5)nc4)ccc(F)c32)cc1 [Compound of Formula 1, (S)-3-(4-(((R)-7-fluoro-4-(6-(((R)-tetrahydrofuran-3-yl)oxy)pyridin-3-yl)-2,3-dihydro-1H-inden-1-yl)oxy)phenyl)hex-4-ynoic acid]",reduction rate (%) in area under the blood glucose curve AUC (0-60 min) relative to vehicle,[1],17.9%
same,reduction rate (%) in area under the blood glucose curve AUC (0-120 min) relative to vehicle,[1],18.1%
same,reduction rate (%) in area under the blood glucose curve AUC (0-60 min) relative to vehicle,[2],21.3%
same,reduction rate (%) in area under the blood glucose curve AUC (0-120 min) relative to vehicle,[2],21.6%
"CCOc1ccc(Cc2cc([C@@H]3O[C@H](CO)[C@@H](O)[C@H](O)[C@H]3O)ccc2Cl)cc1 [Dapagliflozin, dapagliflozin]",reduction rate (%) in area under the blood glucose curve AUC (0-60 min) relative to vehicle,[3],9.8%
same,reduction rate (%) in area under the blood glucose curve AUC (0-120 min) relative to vehicle,[3],6.7%
"OC[C@H]1O[C@@H](c2ccc(Cl)c(Cc3ccc(O[C@H]4CCOC4)cc3)c2)[C@H](O)[C@@H](O)[C@@H]1O [Empagliflozin, empagliflozin]",reduction rate (%) in area under the blood glucose curve AUC (0-60 min) relative to vehicle,[4],5.5%
same,reduction rate (%) in area under the blood glucose curve AUC (0-120 min) relative to vehicle,[4],4.0%

# — patent US20240366579A1, “PHARMACEUTICAL COMPOSITION COMPRISING GPR40 AGONIST AND SGLT-2 INHIBITOR” (ILDONG PHARMACEUTICAL CO., LTD., priority 2021, published 2024)
